This is an account of results in patent US20250000903A1, “EXPANSION PROCESSES AND AGENTS FOR TUMOR INFILTRATING LYMPHOCYTES” (Iovance Biotherapeutics, Inc., priority 2021, published 2025).

Common to all, as to assay type: cell-based, human
Data set [1] concerns tumor-infiltrating lymphocytes (TIL). The data set is described as follows: Functional characteristics of final TIL product expanded with AKTi. Particulars: AKTi treatment during ex vivo expansion. As to the method:
(§1) Patient tumors from different indications were received, fragmented, and subjected to an expansion protocol for TIL manufacturing. Different doses (0.3 μM and 1 μM) of the pan-AKT inhibitor (AKTi) ipatasertib were added to the culture during ex vivo expansion. The expansion potential, as well as the phenotypic and functional characteristics of TIL were evaluated on the final TIL product.

For data set [2] the test system is unchanged. In words: Phenotypic characteristics of final TIL product expanded with AKTi. Particulars: AKTi 1 μM. As to the method: as §1
Data set [3] has the same test system. In words: TIL ex vivo expansion with AKTi ipatasertib: expansion and viability. Particulars: AKTi 1 μM during ex vivo expansion. As to the method:
as §1

The structures appear in SMILES notation.

As to `CC(C)NC[C@@H](C(=O)N1CCN(c2ncnc3c2[C@H](C)C[C@H]3O)CC1)c1ccc(Cl)cc1` [AKTi, ipatasertib], in data set [1], the cytotoxicity result is recorded as “increased” and the “frequency of IFNγ+TNFα+CD8+ T cells” value is on record as “increase”. Moreover, the “expression of CD38 and the transcription factors T-bet and Tox” value in data set [2] (CD39-CD69- cells) was “reduced”. In data set [2] (present even after re-stimulation), the “population of less differentiated CD39-CD69- cells” value is given as “doubled”. Further, in data set [3], the “expansion of TIL relative to control” value is “equivalent” and the “viability of TIL relative to control” value is “equivalent”.
